5 molecules from ChEMBL document CHEMBL3046307, “Synthesis and evaluation of 1-benzhydryl-sulfonyl-piperazine derivatives as inhibitors of MDA-MB-231 human breast cancer cell proliferation” (2007) can be followed below.

Broadly, the inhibition is the share of the control response that was lost under treatment.

Structures are written as SMILES.

The subject of the test is MDA-MB-231. As to the kind of experiment: Cytotoxicity against Homo sapiens (human) MDA-MB-231 cells assessed as inhibition of cell proliferation at 2 mM after 72 hr by MTS assay relative to control. Type of test: functional. The settings on record: MDA-MB-231, 72 h.
In the case of `O=S(=O)(c1ccc(Cl)cc1)N1CCN(C(c2ccccc2)c2ccccc2)CC1`, the inhibition at 2000 µM is 1%.

With `CC(C)(C)c1ccc(S(=O)(=O)N2CCN(C(c3ccccc3)c3ccccc3)CC2)cc1`, the inhibition at 2000 µM is 28.6%. Under `Cc1noc(C)c1S(=O)(=O)N1CCN(C(c2ccccc2)c2ccccc2)CC1` stands 20.6%; under `Cc1ccc(S(=O)(=O)N2CCN(C(c3ccccc3)c3ccccc3)CC2)cc1`, 10%. Next, `CS(=O)(=O)N1CCN(C(c2ccccc2)c2ccccc2)CC1`: 3.79%.
